Laboratory results: patent US8980850B2, “Administration of a NEDD8-activating enzyme inhibitor and hypomethylating agent” (Millennium Pharmaceuticals, Inc., priority 2011, dated 2015)

How the values were obtained:
[1] = tested on: HL-60 disseminated xenograft; test: HL-60 disseminated xenograft model, survival; type: in vivo, female mice CB-17 SCID; conditions: MLN4924 180 mg/kg and/or azacitidine 10 mg/kg s.c. on days 22, 25, 29, 32, 36, 39; for Mean survival time: Vehicle 48.1
Experimental: Test subjects. […] On day 20 post-inoculation, mice were randomized into groups of 10. Starting on day 22, mice were dosed subcutaneously with vehicle, 180 mg/kg MLN4924, 10 mg/kg azacitidine, or the combination of 180 mg/kg MLN4924 and 10 mg/kg azacitidine, using the same twice-weekly schedule as described in the subcutaneous xenograft experiments (dosing on days 22, 25, 29, 32, 36, 39). The mice were monitored at least twice weekly for body weight loss and signs of disease, including paresis or paralysis of hind limbs and emergence of palpable and internal solid tumors. The day on which an animal died or was sacrificed due to disease burden was recorded.
To determine synergy in the survival times, the mean survival times and corresponding standard errors were computed for each treatment group.

[2] = tested on: OCI-M2 subcutaneous xenograft tumors; test: OCI-M2 subcutaneous xenograft model, tumor growth and synergy; conditions: s.c. Days 1, 4, 8, 11, 15 and 18; FIG. 4
[3] = tested on: THP-1 subcutaneous xenograft tumors; test: THP-1 subcutaneous xenograft model, tumor growth and synergy; conditions: s.c. Days 1, 4, 8, 11, 15 and 18; FIG. 3
[4] = tested on: HL60 subcutaneous xenograft tumors; test: HL-60 subcutaneous xenograft model, tumor growth and synergy; conditions: s.c. Days 1, 4, 8, 11, 15 and 18; FIG. 2

NS(=O)(=O)OC[C@@H]1C[C@@H](n2ccc3c(N[C@H]4CCc5ccccc54)ncnc32)C[C@@H]1O [MLN4924, ((1S,2S,4R)-4-(4-((1S)-2,3-dihydro-1H-inden-1-ylamino)-7H-pyrrolo[2,3-d]-pyrimidin-7-yl)-2-hydroxycyclopentyl)methyl sulfamate]
extension of mean survival time compared to the control group [1]: 8.4 days
Mean survival time [1]: 56.5 days
effect on tumor growth [2]: inhibited tumor growth
effect on tumor growth [3]: inhibited tumor growth
effect on tumor growth [4]: marginal effect on tumor growth

Nc1ncn([C@@H]2O[C@H](CO)[C@@H](O)[C@H]2O)c(=O)n1 [azacitidine, 4-amino-1-β-D-ribofuranosyl-s-triazin-2(1H)-one]
extension of mean survival time compared to the control group [1]: 21.1 days
Mean survival time [1]: 69.2 days
effect on tumor growth [2]: inhibited tumor growth
effect on tumor growth [3]: marginal effect on tumor growth
effect on tumor growth [4]: marginal effect on tumor growth

Nc1ncn([C@H]2C[C@H](O)[C@@H](CO)O2)c(=O)n1 [decitabine, 4-amino-1-(2-deoxy-β-D-erythropentofuranosyl)-1,3,5-triazin-2(1H)-one]
single agent activity (THP-1): lack of single agent activity
